According to patent publication US9579381B2 (priority 2012, dated 2017):

System: H37Rv S315T (KatG mutant)
Format: cell-based, Mycobacterium tuberculosis

`NNC(=O)c1ccncc1` [INH, Isoniazid] was tested, and the “dependence of activity on KatG” value was “dependent upon KatG”.
